System: MV-4-11 cells
Assay: Gene expression microarray analysis (Affymetrix PrimeView) and GSEA
Assay type: cell-based, human
Parameters: RFU PODN (11730768_x_at) / Fold change /veh PODN (11730768_x_at) / RFU LINC00158 (11744669_a_at) / Fold change /veh LINC00158 (11744669_a_at) / RFU DUSP10 (11751237_a_at) / Fold change /veh DUSP10 (11751237_a_at) / RFU ID3 (11757404_x_at) / Fold change /veh ID3 (11757404_x_at) / RFU PLEKHG5 (11737974_s_at) / Fold change /veh PLEKHG5 (11737974_s_at) / RFU LRRC4B (11730491_at) / Fold change /veh LRRC4B (11730491_at) / RFU GIMAP4 (11747438_a_at) / Fold change /veh GIMAP4 (11747438_a_at) / RFU KRT8 (11758183_x_at) / Fold change /veh KRT8 (11758183_x_at) / RFU CNN1 (11734310_a_at) / Fold change /veh CNN1 (11734310_a_at) / RFU VPS37D (11726825_at) / Fold change /veh VPS37D (11726825_at) / RFU C10orf10 (11716522_x_at) / Fold change /veh C10orf10 (11716522_x_at) / RFU KIR2DL2 /// KIR2DL4 /// KIR2DL5A /// KIR2DL5B /// KIR2DS1 /// KIR2DS2 /// KIR2DS3 /// KIR2DS4 /// KIR3DL3 /// KIR3DL3 /// KIR3DS1 (11738374_at) / Fold change /veh KIR2DL2 /// KIR2DL4 /// KIR2DL5A /// KIR2DL5B /// KIR2DS1 /// KIR2DS2 /// KIR2DS3 /// KIR2DS4 /// KIR3DL3 /// KIR3DL3 /// KIR3DS1 (11738374_at) / RFU C1QL1 (11718748_at) / Fold change /veh C1QL1 (11718748_at) / RFU TMPRSS4 (11747572_a_at) / Fold change /veh TMPRSS4 (11747572_a_at) / RFU HAMP (11756126_x_at) / Fold change /veh HAMP (11756126_x_at) / RFU RNFT2 (11725882_a_at) / Fold change /veh RNFT2 (11725882_a_at) / RFU NR4A2 (11747474_a_at) / Fold change /veh NR4A2 (11747474_a_at) / RFU ABCC12 (11746883_a_at) / Fold change /veh ABCC12 (11746883_a_at) / RFU TMEM136 (11760407_x_at) / Fold change /veh TMEM136 (11760407_x_at) / RFU CLDN22 /// WWC2 (11732394_at) / Fold change /veh CLDN22 /// WWC2 (11732394_at) / RFU HLA-DPB1 (11760878_x_at) / Fold change /veh HLA-DPB1 (11760878_x_at) / RFU SPINT1 (11716480_a_at) / Fold change /veh SPINT1 (11716480_a_at) / RFU GAP43 (11754022_s_at) / Fold change /veh GAP43 (11754022_s_at) / RFU A4GNT (11735810_at) / Fold change /veh A4GNT (11735810_at) / RFU PRB3 (11715151_x_at) / Fold change /veh PRB3 (11715151_x_at) / RFU TUBB4B (11761932_at) / Fold change /veh TUBB4B (11761932_at) / RFU CAPN14 (11732068_a_at) / Fold change /veh CAPN14 (11732068_a_at) / RFU TMCC2 (11721928_a_at) / Fold change /veh TMCC2 (11721928_a_at) / RFU IRGQ (11745062_a_at) / Fold change /veh IRGQ (11745062_a_at) / RFU FAM174B (11720279_a_at) / Fold change /veh FAM174B (11720279_a_at) / RFU TMPRSS4 (11748680_a_at) / Fold change /veh TMPRSS4 (11748680_a_at) / RFU FAM212B (11763350_a_at) / Fold change /veh FAM212B (11763350_a_at) / RFU PLEKHG5 (11743358_a_at) / Fold change /veh PLEKHG5 (11743358_a_at) / RFU ZSCAN30 (11745921_a_at) / Fold change /veh ZSCAN30 (11745921_a_at) / RFU CMKLR1 (11741424_a_at) / Fold change /veh CMKLR1 (11741424_a_at) / RFU LOC101060620 /// MAPK8IP1 (11723275_at) / Fold change /veh LOC101060620 /// MAPK8IP1 (11723275_at) / RFU SPTSSB (11747773_x_at) / Fold change /veh SPTSSB (11747773_x_at) / RFU PRSS12 (11739890_at) / Fold change /veh PRSS12 (11739890_at) / RFU BIN1 (11741810_x_at) / Fold change /veh BIN1 (11741810_x_at) / RFU WNT11 (11732464_a_at) / Fold change /veh WNT11 (11732464_a_at) / RFU C10orf10 (11716521_a_at) / Fold change /veh C10orf10 (11716521_a_at) / RFU C5orf56 (11738089_at) / Fold change /veh C5orf56 (11738089_at) / RFU CYB561 (11721691_x_at) / Fold change /veh CYB561 (11721691_x_at) / RFU ANKRD19P (11752326_a_at) / Fold change /veh ANKRD19P (11752326_a_at) / RFU OR2T12 /// OR2T33 /// OR2T8 (11738714_s_at) / Fold change /veh OR2T12 /// OR2T33 /// OR2T8 (11738714_s_at) / RFU VCAN (11748164_a_at) / Fold change /veh VCAN (11748164_a_at) / RFU JSRP1 (11732532_at) / Fold change /veh JSRP1 (11732532_at) / RFU KRTAP10-11 (11738290_x_at) / Fold change /veh KRTAP10-11 (11738290_x_at) / RFU MYO3A (11730013_a_at) / Fold change /veh MYO3A (11730013_a_at) / RFU EBF3 (11725865_a_at) / Fold change /veh EBF3 (11725865_a_at) / RFU CAMK2N1 (11719241_x_at) / Fold change /veh CAMK2N1 (11719241_x_at) / RFU C5orf56 (11738088_a_at) / Fold change /veh C5orf56 (11738088_a_at) / RFU OLFML3 (11715873_a_at) / Fold change /veh OLFML3 (11715873_a_at) / RFU LOC100653217 /// NTM (11731650_a_at) / Fold change /veh LOC100653217 /// NTM (11731650_a_at) / RFU MAPK11 (11762145_a_at) / Fold change /veh MAPK11 (11762145_a_at) / RFU FIZ1 (11724087_x_at) / Fold change /veh FIZ1 (11724087_x_at) / RFU OASL (11726364_x_at) / Fold change /veh OASL (11726364_x_at) / RFU SOX15 (11748057_x_at) / Fold change /veh SOX15 (11748057_x_at) / RFU CD79A (11719716_a_at) / Fold change /veh CD79A (11719716_a_at) / RFU HIST1H1D (11736915_at) / Fold change /veh HIST1H1D (11736915_at) / RFU CASKIN2 (11723855_a_at) / Fold change /veh CASKIN2 (11723855_a_at) / RFU LOC730098 (11760151_x_at) / Fold change /veh LOC730098 (11760151_x_at) / RFU OR4N2 (11742367_at) / Fold change /veh OR4N2 (11742367_at) / RFU PRRT2 (11749266_a_at) / Fold change /veh PRRT2 (11749266_a_at) / RFU SNX32 (11753110_a_at) / Fold change /veh SNX32 (11753110_a_at) / RFU CDHR5 (11726645_a_at) / Fold change /veh CDHR5 (11726645_a_at) / RFU RCAN1 (11760418_a_at) / Fold change /veh RCAN1 (11760418_a_at) / RFU FAM167A (11723789_a_at) / Fold change /veh FAM167A (11723789_a_at) / RFU FAM26E (11764081_at) / Fold change /veh FAM26E (11764081_at) / RFU ISYNA1 (11749810_s_at) / Fold change /veh ISYNA1 (11749810_s_at) / RFU ACY1 (11761880_at) / Fold change /veh ACY1 (11761880_at) / RFU 11764098_at / Fold change /veh 11764098_at / RFU SAMD14 (11745864_x_at) / Fold change /veh SAMD14 (11745864_x_at) / RFU NPB (11741838_a_at) / Fold change /veh NPB (11741838_a_at) / RFU TMPRSS6 (11731388_a_at) / Fold change /veh TMPRSS6 (11731388_a_at) / RFU KRTAP10-2 (11738614_at) / Fold change /veh KRTAP10-2 (11738614_at) / RFU ARHGAP8 /// PRR5-ARHGAP8 (11727945_x_at) / Fold change /veh ARHGAP8 /// PRR5-ARHGAP8 (11727945_x_at) / RFU KRTAP5-7 /// NADSYN1 (11734609_at) / Fold change /veh KRTAP5-7 /// NADSYN1 (11734609_at) / RFU RASL12 (11751679_a_at) / Fold change /veh RASL12 (11751679_a_at) / RFU CDKN2B (11736163_a_at) / Fold change /veh CDKN2B (11736163_a_at) / RFU PRF1 (11729649_at) / Fold change /veh PRF1 (11729649_at) / RFU, ZNF638 /// ZNF638-IT1 / Fold change vs veh, ZNF638 /// ZNF638-IT1 / RFU, PANK3 / Fold change vs veh, PANK3 / RFU, SH3YL1 / Fold change vs veh, SH3YL1 / RFU, ZEB2 / Fold change vs veh, ZEB2 / RFU, NRIP1 / Fold change vs veh, NRIP1 / RFU, PTTG1IP / Fold change vs veh, PTTG1IP / RFU, CAPN2 / Fold change vs veh, CAPN2 / RFU, MED14 / Fold change vs veh, MED14 / RFU, SNORA58 / Fold change vs veh, SNORA58 / RFU, C1orf63 / Fold change vs veh, C1orf63 / RFU, LRRFIP1 / Fold change vs veh, LRRFIP1 / RFU, NDUFAF7 / Fold change vs veh, NDUFAF7 / RFU, SLC12A2 / Fold change vs veh, SLC12A2 / RFU, IBTK / Fold change vs veh, IBTK / RFU, ESF1 / Fold change vs veh, ESF1 / Fold change vs veh, TMEM50B / RFU, TAOK1 / Fold change vs veh, TAOK1 / RFU, ACBD3 / Fold change vs veh, ACBD3 / RFU, TMA16 / Fold change vs veh, TMA16 / RFU, RWDD3 / Fold change vs veh, RWDD3 / RFU, BCAT1 / Fold change vs veh, BCAT1 / RFU, EDEM3 / Fold change vs veh, EDEM3 / RFU, TMEM33 / Fold change vs veh, TMEM33 / RFU, WDR75 / Fold change vs veh, WDR75 / RFU, AHCTF1 / Fold change vs veh, AHCTF1 / RFU, TFRC / Fold change vs veh, TFRC / RFU, ZDHHC17 / Fold change vs veh, ZDHHC17 / RFU, NOM1 / Fold change vs veh, NOM1 / RFU, ARL8B / Fold change vs veh, ARL8B / RFU, ZBTB11 / Fold change vs veh, ZBTB11 / RFU, TAMM41 / Fold change vs veh, TAMM41 / RFU, KIAA1704 /// LOC100996395 / Fold change vs veh, KIAA1704 /// LOC100996395 / RFU, ING1 / Fold change vs veh, ING1 / RFU, TRMT61B / Fold change vs veh, TRMT61B / RFU, FUBP3 / Fold change vs veh, FUBP3 / RFU, TP53 / Fold change vs veh, TP53 / RFU, TNKS2 / Fold change vs veh, TNKS2 / RFU, ZFP14 / Fold change vs veh, ZFP14 / RFU, ACTR2 / Fold change vs veh, ACTR2 / RFU, PPP3R1 / Fold change vs veh, PPP3R1 / RFU, PIK3R1 / Fold change vs veh, PIK3R1 / RFU, HNRNPA1 / Fold change vs veh, HNRNPA1 / RFU, RNF170 / Fold change vs veh, RNF170 / RFU, ZNF28 / Fold change vs veh, ZNF28 / RFU, RNGTT / Fold change vs veh, RNGTT / RFU, OGT / Fold change vs veh, OGT / RFU, BRD1 / Fold change vs veh, BRD1 / RFU, MARS / Fold change vs veh, MARS / RFU, ZNF655 / Fold change vs veh, ZNF655 / RFU, FAHD1 / Fold change vs veh, FAHD1 / RFU, BDP1 / Fold change vs veh, BDP1 / RFU, LRRCC1 / Fold change vs veh, LRRCC1 / RFU, ARID1A / Fold change vs veh, ARID1A / RFU, ZNF146 / Fold change vs veh, ZNF146 / RFU, ZNF330 / Fold change vs veh, ZNF330 / RFU, GPN3 / Fold change vs veh, GPN3 / RFU, C9orf123 / Fold change vs veh, C9orf123 / RFU, N4BP2L2 / Fold change vs veh, N4BP2L2 / RFU, ARFIP1 / Fold change vs veh, ARFIP1 / RFU, FAM179B / Fold change vs veh, FAM179B / RFU, BCL10 / Fold change vs veh, BCL10 / RFU, UHRF1BP1L / Fold change vs veh, UHRF1BP1L / RFU, BET1 / Fold change vs veh, BET1 / RFU, CNOT2 / Fold change vs veh, CNOT2 / RFU, ZNF268 / Fold change vs veh, ZNF268 / Fold change vs veh, ZNF507 / RFU, DGCR2 / Fold change vs veh, DGCR2 / RFU, WDSUB1 / Fold change vs veh, WDSUB1 / Fold change vs veh, HSP90B1 /// MIR3652 / RFU, ADSS / Fold change vs veh, ADSS / RFU, GK / Fold change vs veh, GK / RFU, ZNF148 / Fold change vs veh, ZNF148 / RFU, TAF9 / Fold change vs veh, TAF9 / RFU, SLC1A5 / Fold change vs veh, SLC1A5 / RFU, SLMO2 / Fold change vs veh, SLMO2 / RFU, ABCC4 / Fold change vs veh, ABCC4 / RFU, LOC101060439 /// RAP1B / Fold change vs veh, LOC101060439 /// RAP1B / RFU, RFX7 / Fold change vs veh, RFX7 / RFU, GTPBP10 / Fold change vs veh, GTPBP10 / RFU, CNEP1R1 / Fold change vs veh, CNEP1R1 / RFU, BIVM-ERCC5 /// ERCC5 / Fold change vs veh, BIVM-ERCC5 /// ERCC5 / RFU, ILF3 / Fold change vs veh, ILF3 / RFU 11762660_at / Fold change /veh 11762660_at / RFU VCAN (11757783_s_at) / Fold change /veh VCAN (11757783_s_at) / RFU DDX43 (11728927_at) / Fold change /veh DDX43 (11728927_at) / RFU KRT8 (11758188_x_at) / Fold change /veh KRT8 (11758188_x_at) / RFU NKD1 (11759106_at) / Fold change /veh NKD1 (11759106_at) / RFU SRD5A1 (11742802_a_at) / Fold change /veh SRD5A1 (11742802_a_at) / RFU TPSAB1 /// TPSB2 (11721975_s_at) / Fold change /veh TPSAB1 /// TPSB2 (11721975_s_at) / RFU GSTM3 (11746129_a_at) / Fold change /veh GSTM3 (11746129_a_at) / RFU IL23R (11737362_x_at) / Fold change /veh IL23R (11737362_x_at) / RFU TMEM51 (11727254_a_at) / Fold change /veh TMEM51 (11727254_a_at) / RFU PIWIL2 (11732686_x_at) / Fold change /veh PIWIL2 (11732686_x_at) / RFU ORM1 (11744905_x_at) / Fold change /veh ORM1 (11744905_x_at) / RFU CCDC152 (11743942_at) / Fold change /veh CCDC152 (11743942_at) / RFU ECM1 (11717891_a_at) / Fold change /veh ECM1 (11717891_a_at) / RFU IL23R (11748794_a_at) / Fold change /veh IL23R (11748794_a_at) / RFU TNFAIP8L3 (11732012_x_at) / Fold change /veh TNFAIP8L3 (11732012_x_at) / RFU MBOAT4 (11741988_at) / Fold change /veh MBOAT4 (11741988_at) / RFU 11764193_at / Fold change /veh 11764193_at / RFU TMEM53 (11763286_at) / Fold change /veh TMEM53 (11763286_at) / RFU MAGEB2 (11727129_at) / Fold change /veh MAGEB2 (11727129_at) / RFU TMEM200A (11744735_a_at) / Fold change /veh TMEM200A (11744735_a_at) / RFU CCDC152 (11751479_a_at) / Fold change /veh CCDC152 (11751479_a_at) / RFU FAM211A (11726209_a_at) / Fold change /veh FAM211A (11726209_a_at) / RFU RGS16 (11746705_a_at) / Fold change /veh RGS16 (11746705_a_at) / RFU VCAN (11755009_s_at) / Fold change /veh VCAN (11755009_s_at) / RFU RHOB (11743442_s_at) / Fold change /veh RHOB (11743442_s_at) / RFU RGS16 (11720943_a_at) / Fold change /veh RGS16 (11720943_a_at) / RFU RGS16 (11720944_at) / Fold change /veh RGS16 (11720944_at) / RFU, VPS4B / Fold change vs veh, VPS4B / RFU, CREB1 / Fold change vs veh, CREB1 / RFU, DNAJC13 / Fold change vs veh, DNAJC13 / RFU, GNAQ / Fold change vs veh, GNAQ / RFU, CDK5R1 / Fold change vs veh, CDK5R1 / RFU, ZRANB3 / Fold change vs veh, ZRANB3 / RFU, CUL4A / Fold change vs veh, CUL4A / RFU, CCNY / Fold change vs veh, CCNY / RFU, UFL1 / Fold change vs veh, UFL1 / RFU, COG3 / Fold change vs veh, COG3 / RFU, DIAPH2 / Fold change vs veh, DIAPH2 / RFU, SKA2 / Fold change vs veh, SKA2 / RFU, AFF3 / Fold change vs veh, AFF3 / RFU, LMF1 / Fold change vs veh, LMF1 / RFU, IPO11 / Fold change vs veh, IPO11 / RFU, DFFB / Fold change vs veh, DFFB / RFU, FOXP1 / Fold change vs veh, FOXP1 / RFU, CARD8 / Fold change vs veh, CARD8 / RFU, STRN3 / Fold change vs veh, STRN3 / RFU, ADK / Fold change vs veh, ADK / RFU, RASSF2 / Fold change vs veh, RASSF2 / RFU, WIPF1 / Fold change vs veh, WIPF1 / RFU, LARP1B / Fold change vs veh, LARP1B / RFU, RASA1 / Fold change vs veh, RASA1 / RFU, RB1 / Fold change vs veh, RB1 / RFU, PPFIA1 / Fold change vs veh, PPFIA1 / RFU, MAT2A / Fold change vs veh, MAT2A / RFU, CCT5 / Fold change vs veh, CCT5 / RFU, WDR92 / Fold change vs veh, WDR92 / RFU, CUX1 / Fold change vs veh, CUX1 / RFU, TTC7A / Fold change vs veh, TTC7A / RFU, TMEM135 / Fold change vs veh, TMEM135 / RFU, DEPTOR / Fold change vs veh, DEPTOR / RFU, CPM / Fold change vs veh, CPM / RFU, DNAJB6 / Fold change vs veh, DNAJB6 / RFU, CACNA2D3 / Fold change vs veh, CACNA2D3 / RFU, DTX4 / Fold change vs veh, DTX4 / RFU, TFCP2 / Fold change vs veh, TFCP2 / RFU, GMCL1 /// GMCL1P1 / Fold change vs veh, GMCL1 /// GMCL1P1 / RFU, AEBP2 / Fold change vs veh, AEBP2 / RFU, SNHG1 /// SNORD22 /// SNORD25 /// SNORD26 /// SNORD27 /// SNORD28 /// SNORD29 /// SNORD31 / Fold change vs veh, SNHG1 /// SNORD22 /// SNORD25 /// SNORD26 /// SNORD27 /// SNORD28 /// SNORD29 /// SNORD31 / Fold change (Aza/veh), C12orf56 (ProbeSet 11735607_a_at) / Fold change (ACY-1035/veh), C12orf56 (ProbeSet 11735607_a_at) / Fold change (Aza/veh), FGFR1OP (ProbeSet 11751329_s_at) / Fold change (ACY-1035/veh), FGFR1OP (ProbeSet 11751329_s_at) / Fold change (Aza/veh), VPS36 (ProbeSet 11739960_a_at) / Fold change (ACY-1035/veh), VPS36 (ProbeSet 11739960_a_at) / RFU SYPL1 (11715823_x_at) / Fold change /veh SYPL1 (11715823_x_at) / RFU IGFBP7 (11715501_s_at) / Fold change /veh IGFBP7 (11715501_s_at) / RFU REEP3 (11722064_at) / Fold change /veh REEP3 (11722064_at) / RFU IGLL1 (11728026_x_at) / Fold change /veh IGLL1 (11728026_x_at): dose or concentration left out as unconfirmed
Conditions: ProbeSet 11732306_x_at; LIST D

Nc1ccc(-c2cccs2)cc1NC(=O)c1ccc2c(c1)cc(C1CC1)n2CCN1CCOCC1 [ACY-1035]
RFU, CREB1: 287.35 RFU
